Results reported in patent US10745428B2, “Antiviral phosphodiamide prodrugs of tenofovir” (Merck Sharp & Dohme Corp., priority 2015, dated 2020).
Read-outs that look alike come from different tables or passages of the source.

Tested on: HIV-1 (H9/IIIB strain)
Experiment: Multiple round HIV-1 infection assay (Viking assay), HIV-1 replication in MT4-GFP cells
Format: cell-based
Details: MT4-GFP cells infected with HIV-1 H9/IIIB
Experimental: The antiviral activity of the tenofovir prodrugs of the Examples herein was assessed in an assay that measures the rate of replication of HIV in cell culture, termed the Viking assay (VIral KINetics in Green cells) and performed as follows. HIV-1 replication was monitored using MT4-gag-GFP clone D3 (hereafter designated MT4-GFP; GFP is green fluorescent protein), which are MT-4 cells modified to harbor a GFP reporter gene, the expression of which is dependent on the HIV-1 expressed proteins tat and rev; see Wang Y-J et al., 2010J Virological Methods 165:230-237. Productive infection of an MT4-GFP cell with HIV-1 results in GFP expression approximately 24 h post-infection. MT4-GFP cells were maintained at 37° C./5% CO2/90% relative humidity in RPMI 1640 supplemented with 10% fetal bovine serum, 100 U/ml penicillin/streptomycin, and 400 μg/ml G418 to maintain the reporter gene. For infections, MT4-GFP cells were placed in the same medium lacking G418 and infected overnight with HIV-1 (H9/IIIB strain) virus at an approximate multiplicity of infection of 0.01 in the same incubation conditions. Cells were then washed and re-suspended in either RPMI 1640 supplemented with 10% or 50% normal human serum (NHS) at 1.6×10^5 cells/mL (10% NHS or 50% NHS, respectively). Compound plates were prepared by dispensing compounds dissolved in DMSO into wells of 384 well poly-D-lysine-coated plates (0.2 μl/well) using an ECHO acoustic dispenser. Each compound was tested in a 10-point serial 3-fold dilution (typical final concentrations: 8.4 μM-0.42 nM). Controls included no inhibitor (DMSO only) and a combination of three antiviral agents (efavirenz, indinavir, and an integrase strand transfer inhibitor at final concentrations of 4 μM each). Cells were added (50 μL/well) to compound plates and the infected cells were maintained at 37′C/5% CO2/90% relative humidity.
Infected cells were quantified at two time points, ˜48 h and ˜72 h post-infection, by counting the number of green cells in each well using an Acumen eX3 scanner. The increase in the number of green cells over ˜24 h period gives the reproductive ratio, R0, which is typically 5-15 and has been shown experimentally to be in logarithmic phase (data not shown). R0 is calculated for each well, and IC50s determined by non-linear 4-parameter curve fitting.

[1] = 10% normal human serum, read-out: Viking, IC50 (10% NHS)
[2] = 50% normal human serum, read-out: Viking, IC50 (50% NHS)
[3] = Human immunodeficiency virus 1, IIIB, 10% normal human serum, read-out: Viking, IC50 (10% NHS)
[4] = Human immunodeficiency virus 1, IIIB, 50% normal human serum, read-out: Viking, IC50 (50% NHS)

SMILES	IC50 [1] [nM]	IC50 [2] [nM]	IC50 [3] [nM]	IC50 [4] [nM]
CCCCCCOC(=O)C(C)(C)NP(=O)(CO[C@H](C)Cn1cnc2c(N)ncnc21)N[C@H](C)C(=O)OCCCC (single isomer, unassigned) [Example 11B]	0.8	2.6	–	–
CCCCOC(=O)C(C)(C)NP(=O)(CO[C@H](C)Cn1cnc2c(N)ncnc21)N[C@H](C)C(=O)OC1CCC1 (single isomer, unassigned) [Example 23A]	–	35.5	6.7	–
CCCCCCOC(=O)C(C)(C)NP(=O)(CO[C@H](C)Cn1cnc2c(N)ncnc21)N[C@H](C)C(=O)OC1CCCC1 (single isomer, unassigned) [Example 14A]	9.8	67.2	–	–
CCCCCCOC(=O)C(C)(C)NP(=O)(CO[C@H](C)Cn1cnc2c(N)ncnc21)N[C@H](C)C(=O)OC1CCC1 (single isomer, unassigned) [Example 21B]	0.7	2.8	–	–
CCCCCCOC(=O)C(C)(C)NP(=O)(CO[C@H](C)Cn1cnc2c(N)ncnc21)N[C@H](C)C(=O)OCCCCC (single isomer, unassigned) [Example 12B]	0.5	3.3	–	–
CC(C)OC(=O)C(C)(C)NP(=O)(CO[C@H](C)Cn1cnc2c(N)ncnc21)N[C@H](C)C(=O)OC1CCCCC1 (single isomer, unassigned) [Example 6A]	101	500	–	–
CC(C)OC(=O)C(C)(C)NP(=O)(CO[C@H](C)Cn1cnc2c(N)ncnc21)N[C@H](C)C(=O)OC1CCCC1 (single isomer, unassigned) [Example 1A]	19.3	44.3	–	–
CC(C)OC(=O)[C@@H](C)NP(=O)(CO[C@H](C)Cn1cnc2c(N)ncnc21)NC(C)(C)C(=O)OC(C)C (single isomer, unassigned) [Example 4B]	74.6	122	–	–
CCCCCCOC(=O)[C@@H](C)NP(=O)(CO[C@H](C)Cn1cnc2c(N)ncnc21)NC(C)(C)C(=O)OC(C)C (single isomer, unassigned) [Example 7A]	10.4	57.8	–	–
CCCCCOC(=O)C(C)(C)NP(=O)(CO[C@H](C)Cn1cnc2c(N)ncnc21)N[C@H](C)C(=O)OC1CCC1 (single isomer, unassigned) [Example 19A]	6.9	27.4	–	–
CCCCCCOC(=O)C(C)(C)NP(=O)(CO[C@H](C)Cn1cnc2c(N)ncnc21)N[C@H](C)C(=O)OCCCCC (single isomer, unassigned) [Example 12A]	7.3	54.4	–	–
C[C@H](Cn1cnc2c(N)ncnc21)OCP(=O)(N[C@H](C)C(=O)OC1CCCC1)NC(C)(C)C(=O)OC1CCC1 (single isomer, unassigned) [Example 28A]	–	16.1	5.4	–
CCCCCCOC(=O)C(C)(C)NP(=O)(CO[C@H](C)Cn1cnc2c(N)ncnc21)N[C@H](C)C(=O)OC1CCCCC1 (single isomer, unassigned) [Example 15A]	7.7	25.9	–	–
CCCCCOC(=O)[C@@H](C)NP(=O)(CO[C@H](C)Cn1cnc2c(N)ncnc21)NC(C)(C)C(=O)OCCCCC (single isomer, unassigned) [Example 16A]	10	60.1	–	–
CCCCCOC(=O)[C@@H](C)NP(=O)(CO[C@H](C)Cn1cnc2c(N)ncnc21)NC(C)(C)C(=O)OC(C)C (single isomer, unassigned) [Example 8A]	12.6	–	–	41.4
C[C@H](Cn1cnc2c(N)ncnc21)OCP(=O)(N[C@H](C)C(=O)OC1CCCC1)NC(C)(C)C(=O)OC1CCCCC1 (single isomer, unassigned) [Example 27A]	12.9	64.5	–	–
CCCCCCOC(=O)C(C)(C)NP(=O)(CO[C@H](C)Cn1cnc2c(N)ncnc21)N[C@H](C)C(=O)OC1CCC1 (single isomer, unassigned) [Example 21A]	4.4	14.9	–	–
CCCCCOC(=O)[C@@H](C)NP(=O)(CO[C@H](C)Cn1cnc2c(N)ncnc21)NC(C)(C)C(=O)OC(C)C (single isomer, unassigned) [Example 8B]	3.9	20.7	–	–
CC(C)OC(=O)C(C)(C)NP(=O)(CO[C@H](C)Cn1cnc2c(N)ncnc21)N[C@H](C)C(=O)OC1CCCCC1 (single isomer, unassigned) [Example 6B]	1.9	5.6	–	–
CCCCCCOC(=O)C(C)(C)NP(=O)(CO[C@H](C)Cn1cnc2c(N)ncnc21)N[C@H](C)C(=O)OCC(C)C (single isomer, unassigned) [Example 10A]	6.6	72.5	–	–
CCCCCCOC(=O)C(C)(C)NP(=O)(CO[C@H](C)Cn1cnc2c(N)ncnc21)N[C@H](C)C(=O)OCCCC (single isomer, unassigned) [Example 11A]	9.9	99	–	–
CC(C)COC(=O)[C@@H](C)NP(=O)(CO[C@H](C)Cn1cnc2c(N)ncnc21)NC(C)(C)C(=O)OC(C)C (single isomer, unassigned) [Example 5B]	2.5	6.4	–	–
CCCCOC(=O)[C@@H](C)NP(=O)(CO[C@H](C)Cn1cnc2c(N)ncnc21)NC(C)(C)C(=O)OC(C)C (single isomer, unassigned) [Example 3A]	20.7	71.4	–	–
CC(C)OC(=O)[C@@H](C)NP(=O)(CO[C@H](C)Cn1cnc2c(N)ncnc21)NC(C)(C)C(=O)OC(C)C (single isomer, unassigned) [Example 4A]	418	1400	–	–
CCCCCOC(=O)[C@H]1CCCN1P(=O)(CO[C@H](C)Cn1cnc2c(N)ncnc21)NC(C)(C)C(=O)OCCCCC (single isomer, unassigned) [Example 26A]	–	50.3	5.3	–
CC(C)COC(=O)[C@@H](C)NP(=O)(CO[C@H](C)Cn1cnc2c(N)ncnc21)NC(C)(C)C(=O)OC(C)C (single isomer, unassigned) [Example 5A]	33.1	129	–	–
CCCCCCOC(=O)[C@@H](C)NP(=O)(CO[C@H](C)Cn1cnc2c(N)ncnc21)NC(C)(C)C(=O)OC(C)C (single isomer, unassigned) [Example 7B]	4.7	28.8	–	–
CC(C)OC(=O)C(C)(C)NP(=O)(CO[C@H](C)Cn1cnc2c(N)ncnc21)N[C@H](C)C(=O)OC1CCC1 (single isomer, unassigned) [Example 18A]	–	–	20	34.2
